Results: patent publication US12377076B2, “Compounds for treating lymphoma or a T-cell malignant disease” (Purdue Pharma L.P., priority 2018, dated 2025)
Several values for one entry are separate records, joined by “and”; a condition that tells them apart may be missing. Identical values can stand only once. Like-named read-outs stand apart in the source and are kept apart here.

Assays:
[1] = system: lymphocytes; test: PK/PD safety modelling: dose-nadir relationship of blood cell counts, lymphocytes; assay type: in vivo, human; settings: (% CV) in table
Source text: (§1) The obtained exposure parameters (Cmax and AUC) and PK profiles from individual patients and the respective haematological laboratory data were collected over the treatment duration and analysed regarding the relationship to peripheral blood cell counts (lymphocytes, neutrophils, platelets).
(§2) The nadir was defined as the lowest blood cell count observed after the first administration. The nadir was extracted irrespective of the treatment duration, thus, the analysis data set included patients who received only one dose and patients who received multiple treatment cycles with tinostamustine. The baseline blood cell count, which was the count before the first administration, was included in the analysis as the cell count at dose, Cmax or AUC equal to 0. Thus, it was assumed that the baseline blood cell count was the effect level without treatment with tinostamustine. With an exploratory analysis all observations each predictor-nadir relationship was fitted with a least-squares method in R. The dose-nadir relationship was further investigated with a non-linear mixed effects approach. The advantage of the non-linear mixed effects approach compared to the exploratory analysis was that different external and patient factors could be investigated at the same time and the between patient variability can be described. […]

[2] = system: patients with HL; test: Tumour assessment: response to treatment, patients with HL; assay type: in vivo, human
Source text: (§3) Response to treatment included evaluation of overall response rate (patients with a CR plus patients with a PR), clinical benefit (CB) rate (patients with CR plus patients with PR plus patients with stable disease (SD)), progression free survival, and overall survival according to the relevant response criteria.

[3] = system: patients with MM; test: Tumour assessment: response to treatment, patients with multiple myeloma; assay type: in vivo, human; settings: 19 patients with MM
Source text: as §3

[4] = system: patients with lymphoma; test: Tumour assessment: response to treatment, patients with lymphoma; assay type: in vivo, human
Source text: as §3

[5] = system: patients with relapsed/refractory hematologic malignancies; test: Tumour assessment: response to treatment, all HM; assay type: in vivo, human; settings: all 46 patients
Source text: as §3

[6] = PK assessment: plasma tinostamustine and metabolites M2 and M8, non-compartmental analysis and population PK model; assay type: in vivo, human; settings: for AUC / Cmax / Tmax: day one, Mean (SD)
Experimental: Plasma samples were collected to determine the concentrations of tinostamustine and its metabolites (labelled M2 and M8) by a method fully validated according to the relevant guidelines. The PK profiles of tinostamustine in plasma were assessed in each patient in the escalation stage of the study, in cycle 1 only.
Patients of all cohorts and over all dose levels were sampled according to the following schedule: 0.5 hours prior to dose administration, and at 15, 30 and 45 minutes and 1, 1.25, 1.50, 2, 3, 8, 24, 48 and 72 hours from the start of tinostamustine infusion. Plasma samples were collected according to the Laboratory Manual for the determination of tinostamustine and metabolites M2 and M8 concentrations using a method fully validated according to the relevant guidelines.
A compartmental population PK analysis of tinostamustine was conducted to characterize its concentration-time profiles and its dependency on patient factors. For the analysis, the 24 hours plasma concentrations of tinostamustine at day one from 36 patients was used from whom the data was available. The concentration-time profiles were best described with a two-compartmental model with first order clearance from the central compartment.

[7] = system: lymphoma; settings: in vitro and in vivo models; cited from earlier work
[8] = system: neutrophils; test: PK/PD safety modelling: dose-nadir relationship of blood cell counts, neutrophils; assay type: in vivo, human; settings: (% CV) in table
Source text: as §1, §2

[9] = system: platelets; test: PK/PD safety modelling: dose-nadir relationship of blood cell counts, platelets; assay type: in vivo, human; settings: (% CV) in table
Source text: as §1, §2

[10] = human, plasma, intravenous, 20 mg/m^2, 20 mg/m^2, infusion 60 minutes
[11] = human, plasma, intravenous, 40 mg/m^2, 40 mg/m^2, infusion 60 minutes
[12] = human, plasma, intravenous, 60 mg/m^2, 60 mg/m^2, infusion 30 minutes
[13] = human, plasma, intravenous, 60 mg/m^2, 60 mg/m^2, infusion 60 minutes
[14] = human, plasma, intravenous, 80 mg/m^2, 80 mg/m^2, infusion 45 minutes
[15] = human, plasma, intravenous, 80 mg/m^2, 80 mg/m^2, infusion 60 minutes
[16] = human, plasma, intravenous, 100 mg/m^2, 100 mg/m^2, infusion 60 minutes
[17] = human, plasma, intravenous, 120 mg/m^2, 120 mg/m^2, infusion 60 minutes

Cn1c(CCCCCCC(=O)NO)nc2cc(N(CCCl)CCCl)ccc21 [tinostamustine]
EC50 (dose required to reduce the cell count by 50%) [1]: 28.3 mg/m^2 and 28.3 (40%) mg/m^2
response ([2]; 1 patient with refractory HL treated with 120 m/m^2 over 6 cycles): achieved a CR
patients having a response from SD to CR ([2]; 10 patients with HL): 70%
CBR [3]: 42%
ORR [3]: 11%
best response CR [3]: 0 patients
best response PR [3]: 11%
best response SD [3]: 31%
best response of PD [3]: 47%
CBR ([4]; 27 patients with lymphoma): 62%
ORR ([4]; 27 patients with lymphoma): 40%
best response CR ([4]; 27 patients with lymphoma): 11%
best response PR ([4]; 27 patients with lymphoma): 30%
best response SD ([4]; 27 patients with lymphoma): 22%
best response of PD ([4]; 27 patients with lymphoma): 37%
ORR and CBR ([4]; LYM60 mg/m^2/30 min cohort): 100%
best response complete response (CR) [5]: 7%
best response of PD [5]: 41%
best response partial response (PR) [5]: 21%
clinical benefit rate (CBR) [5]: 45%
overall response rate (ORR) [5]: 28%
dose linearity of PK ([6]; dose range 20-120 mg/m^2 over 60 minutes infusion time): linear
dose linearity of PK ([6]; dose range 20 to 120 mg/m^2, infusion times of 30 to 60 minutes): dose-linear
AUC [6, 10]: 193 ng·h/mL
Cmax [6, 10]: 241 ng/mL
Tmax [6, 10]: 48 min
AUC [6, 11]: 932 ng·h/mL
Cmax [6, 11]: 1160 ng/mL
Tmax [6, 11]: 24 min
AUC [6, 12]: 627 ng·h/mL
Cmax [6, 12]: 1720 ng/mL
Tmax [6, 12]: 18 min
AUC [6, 13]: 592 ng·h/mL
Cmax [6, 13]: 640 ng/mL
Tmax [6, 13]: 60 min
AUC [6, 14]: 794 ng·h/mL
Cmax [6, 14]: 1280 ng/mL
Tmax [6, 14]: 24 min
AUC [6, 15]: 902 ng·h/mL
Cmax [6, 15]: 1060 ng/mL
Tmax [6, 15]: 48 min
AUC [6, 16]: 1660 ng·h/mL
Cmax [6, 16]: 1960 ng/mL
Tmax [6, 16]: 42 min
AUC [6, 17]: 1640 ng·h/mL
Cmax [6, 17]: 1770 ng/mL
Tmax [6, 17]: 48 min
half-life ([6]; human, plasma, intravenous, population PK, two-compartmental model, 36 patients, read-out: B half-life (converted)): 216 min
Vd ([6]; human, plasma, intravenous, population PK, two-compartmental model, 36 patients, read-out: Central volume of distribution): 20.6 L
half-life ([6]; human, plasma, intravenous, population PK, two-compartmental model, 36 patients, read-out: α half-life): 27 min
Peripheral volume of distribution ([6]; population PK, two-compartmental model, 36 patients): 11.5 L
time to maximum concentrations ([6]; shorter infusions): around 30 minutes
activity against lymphoma [7]: potent activity
EC50 (dose required to reduce the cell count by 50%) [8]: 49.1 mg/m^2 and 49.1 (70%) mg/m^2
EC50 (dose required to reduce the cell count by 50%) [9]: 55.5 mg/m^2 and 55.5 (72%) mg/m^2
